Data published in ChEMBL document CHEMBL3259557, “Structure-activity relationships and colorimetric properties of specific probes for the putative cancer biomarker human arylamine N-acetyltransferase 1” (Bioorg Med Chem, 2014).

Target: T1, NAT1 (arylamine N-acetyltransferase 1) (Homo sapiens, UniProt P18440)
T1 sequence (P18440 whole entry): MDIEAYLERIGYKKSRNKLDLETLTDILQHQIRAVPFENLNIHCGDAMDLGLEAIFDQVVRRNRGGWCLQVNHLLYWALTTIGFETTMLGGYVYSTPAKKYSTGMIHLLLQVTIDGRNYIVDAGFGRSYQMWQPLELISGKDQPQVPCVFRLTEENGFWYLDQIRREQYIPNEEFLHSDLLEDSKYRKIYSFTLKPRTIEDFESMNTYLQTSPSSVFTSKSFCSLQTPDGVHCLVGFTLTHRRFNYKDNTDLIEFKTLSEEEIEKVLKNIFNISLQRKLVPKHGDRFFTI
Experiment: in vitro
Settings: ZR-75-1 cells, probe arylamine and AcCoA
With `Cc1cc(C)cc(NC2=C(NS(=O)(=O)c3ccccc3)C(=O)c3ccccc3C2=O)c1` the inhibition at 1 µM was greater than 50%. With `Cc1cc(C)cc(NC2=C(NS(=O)(=O)c3ccc(F)cc3)C(=O)c3ccccc3C2=O)c1` the inhibition at 1 µM was greater than 50%. In the case of `Cc1cc(C)cc(NC2=C(NS(=O)(=O)c3ccccc3)C(=O)c3cc(N)ccc3C2=O)c1`, the inhibition at 1 µM is reported as greater than 50%. Compound `Cc1cc(C)cc(NC2=C(NS(=O)(=O)c3ccccc3)C(=O)c3c(N)cccc3C2=O)c1` has an inhibition at 1 µM greater than 50%.

Target: T2, NAT2 (arylamine N-acetyltransferase 2) (Homo sapiens, UniProt P11245)
T2 sequence (P11245 whole entry): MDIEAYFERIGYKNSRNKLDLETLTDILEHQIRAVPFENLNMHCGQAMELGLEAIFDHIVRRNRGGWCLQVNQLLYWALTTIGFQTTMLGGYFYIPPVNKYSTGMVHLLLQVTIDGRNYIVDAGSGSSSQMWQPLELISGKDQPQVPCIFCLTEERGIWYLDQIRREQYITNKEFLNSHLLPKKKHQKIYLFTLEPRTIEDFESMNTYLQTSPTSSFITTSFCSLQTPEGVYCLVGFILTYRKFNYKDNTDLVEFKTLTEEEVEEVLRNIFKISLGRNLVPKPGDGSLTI
Experiment: in vitro
Settings: probe arylamine and AcCoA
Work on `O=Cc1cccc(C2=C(NC(=O)c3ccccc3)C(=O)c3ccccc3C2=O)c1` yielded an inhibition at 30 µM greater than 50%. For `O=C(NC1=C(c2ccoc2)C(=O)c2ccccc2C1=O)c1ccccc1`, the inhibition at 30 µM was greater than 50%.

Tested on: not listed separately
Experiment: physchem
Settings: buffered solution containing 5% DMSO
For `O=C1C(Nc2ccccc2)=C(NS(=O)(=O)c2ccccc2)C(=O)c2ccccc21`, the pKa at 100 µM was 9.5. Work on `Cc1cc(C)cc(NC2=C(NS(=O)(=O)c3ccccc3)C(=O)c3ccccc3C2=O)c1` yielded a pKa at 100 µM of 9.2. Work on `O=C1C(Nc2ccc(Br)cc2)=C(NS(=O)(=O)c2ccccc2)C(=O)c2ccccc21` yielded a pKa at 100 µM of 10.4. `COCCNC1=C(NS(=O)(=O)c2ccccc2)C(=O)c2ccccc2C1=O` gave a pKa at 100 µM of 9.8. `O=C1C(NC2CCCC2)=C(NS(=O)(=O)c2ccccc2)C(=O)c2ccccc21` showed a pKa at 100 µM of 10.1. `O=C1C(NCc2ccccc2)=C(NS(=O)(=O)c2ccccc2)C(=O)c2ccccc21` showed a pKa at 100 µM of 10.4. `O=C1C(NS(=O)(=O)c2ccccc2)=C(Oc2ccccc2)C(=O)c2ccccc21` showed a pKa at 100 µM of 5. For `Cc1cc(C)cc(OC2=C(NS(=O)(=O)c3ccccc3)C(=O)c3ccccc3C2=O)c1`, the pKa at 100 µM was 5. Work on `O=C1C(NS(=O)(=O)c2ccccc2)=C(Oc2ccc(Br)cc2)C(=O)c2ccccc21` yielded a pKa at 100 µM of 5. Compound `O=C1C(NS(=O)(=O)c2ccccc2)=C(c2ccccc2Cl)C(=O)c2ccccc21` has a pKa at 100 µM of 4.9. For `O=C1C(NS(=O)(=O)c2ccccc2)=C(c2cccc(Cl)c2)C(=O)c2ccccc21`, the pKa at 100 µM was 4.5. In the case of `O=C1C(NS(=O)(=O)c2ccccc2)=C(c2ccc(Cl)cc2)C(=O)c2ccccc21`, the pKa at 100 µM is reported as 5. Compound `O=Cc1cccc(C2=C(NS(=O)(=O)c3ccccc3)C(=O)c3ccccc3C2=O)c1` has a pKa at 100 µM of 5. For `O=Cc1ccc(C2=C(NS(=O)(=O)c3ccccc3)C(=O)c3ccccc3C2=O)cc1`, the pKa at 100 µM was 4.6. In the case of `O=C1C(NS(=O)(=O)c2ccccc2)=C(c2ccco2)C(=O)c2ccccc21`, the pKa at 100 µM is reported as 5.1. Compound `O=C1C(NS(=O)(=O)c2ccccc2)=C(c2ccoc2)C(=O)c2ccccc21` has a pKa at 100 µM of 5. For `Cc1cc(C)cc(NC2=C(NS(C)(=O)=O)C(=O)c3ccccc3C2=O)c1`, the pKa at 100 µM was 9.5. With `Cc1cc(C)cc(NC2=C(NS(=O)(=O)C3CCCCC3)C(=O)c3ccccc3C2=O)c1` the pKa at 100 µM was 10.6. With `Cc1cc(C)cc(NC2=C(NS(=O)(=O)c3ccccc3C)C(=O)c3ccccc3C2=O)c1` the pKa at 100 µM was 9.3. With `Cc1cc(C)cc(NC2=C(NS(=O)(=O)c3ccccc3[N+](=O)[O-])C(=O)c3ccccc3C2=O)c1` the pKa at 100 µM was 7.9. Compound `Cc1cc(C)cc(NC2=C(NS(=O)(=O)c3c(F)cccc3F)C(=O)c3ccccc3C2=O)c1` has a pKa at 100 µM of 8.4. `Cc1cc(C)cc(NC2=C(NS(=O)(=O)c3cccc([N+](=O)[O-])c3)C(=O)c3ccccc3C2=O)c1` showed a pKa at 100 µM of 8.6. `Cc1ccc(S(=O)(=O)NC2=C(Nc3cc(C)cc(C)c3)C(=O)c3ccccc3C2=O)cc1` showed a pKa at 100 µM of 9.7. Work on `Cc1cc(C)cc(NC2=C(NS(=O)(=O)c3ccc(F)cc3)C(=O)c3ccccc3C2=O)c1` yielded a pKa at 100 µM of 9.9. `Cc1cc(C)cc(NC2=C(NS(=O)(=O)c3ccco3)C(=O)c3ccccc3C2=O)c1` gave a pKa at 100 µM of 8.3. `Cc1cc(C)cc(NC2=C(NS(=O)(=O)Cc3ccccc3)C(=O)c3ccccc3C2=O)c1` showed a pKa at 100 µM of 10. For `O=Cc1cccc(C2=C(NC(=O)c3ccccc3)C(=O)c3ccccc3C2=O)c1`, the pKa at 100 µM was 10.9. `O=C(NC1=C(c2ccoc2)C(=O)c2ccccc2C1=O)c1ccccc1` gave a pKa at 100 µM of 12.1. `O=Cc1cccc(C2=C(NC(=O)Cc3ccccc3)C(=O)c3ccccc3C2=O)c1` gave a pKa at 100 µM of 11.4. For `O=C(Cc1ccccc1)NC1=C(c2ccoc2)C(=O)c2ccccc2C1=O`, the pKa at 100 µM was 12.5. Work on `Cc1cc(C)cc(NC2=C(NS(=O)(=O)c3ccccc3)C(=O)c3cccc([N+](=O)[O-])c3C2=O)c1` yielded a pKa at 100 µM of 8.2. For `Cc1cc(C)cc(NC2=C(NS(=O)(=O)c3ccccc3)C(=O)c3ccc([N+](=O)[O-])cc3C2=O)c1`, the pKa at 100 µM was 7.5. Compound `Cc1cc(C)cc(NC2=C(NS(=O)(=O)c3ccccc3)C(=O)c3cc([N+](=O)[O-])ccc3C2=O)c1` has a pKa at 100 µM of 8. For `Cc1cc(C)cc(NC2=C(NS(=O)(=O)c3ccccc3)C(=O)c3c(cccc3[N+](=O)[O-])C2=O)c1`, the pKa at 100 µM was 8.6. Work on `O=C1C(Nc2ccccc2)=C(NS(=O)(=O)c2ccccc2)C(=O)c2c1cccc2[N+](=O)[O-]` yielded a pKa at 100 µM of 8.4. `Cc1cc(C)cc(NC2=C(NS(=O)(=O)c3ccccc3)C(=O)c3c(N)cccc3C2=O)c1` gave a pKa at 100 µM of 8.4. With `Nc1cccc2c1C(=O)C(NS(=O)(=O)c1ccccc1)=C(Nc1ccccc1)C2=O` the pKa at 100 µM was 8.2.
